Source: patent US20060069132A1, “Azolecarboxamide herbicides” (priority 2004, published 2006)

How the values were obtained:
barnyardgrass [1] = test: Test B pre-/postemergence herbicide test; type: in vivo, Echinochloa crus-galli; conditions: for Barnyardgrass plant response rating: scale 0 (no effect) to 100 (complete control)
Summary of the method: (§1)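 Test chemicals in a non-phytotoxic solvent mixture with surfactant were applied preemergence to seeded species and postemergence to plants 2-18 cm tall (1- to 4-leaf stage); rice and barnyardgrass were also tested in a flooded paddy at the 2-leaf stage. Visual rating versus controls after 13-15 days in greenhouse, scale 0 (no effect) to 100 (complete control).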

Surinam grass = test: Test B pre-/postemergence herbicide test; type: in vivo, Urochloa decumbens; conditions: for Surinam Grass plant response rating: scale 0 (no effect) to 100 (complete control)
Summary of the method: (§2)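 Evaluation is visual, comparing treated with control plants on a scale where 0 means no effect and 100 means full control. Treatments were preemergence, or postemergence on seedlings 2–18 cm tall, and held 13–15 days in the greenhouse.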

cocklebur = test: Test B pre-/postemergence herbicide test; type: in vivo, Xanthium strumarium; conditions: for Cocklebur plant response rating: scale 0 (no effect) to 100 (complete control)
Summary of the method: as §1

corn = test: Test B pre-/postemergence herbicide test; type: in vivo, Zea mays; conditions: for Corn plant response rating: scale 0 (no effect) to 100 (complete control)
Summary of the method: as §2

large crabgrass = test: Test B pre-/postemergence herbicide test; type: in vivo, Digitaria sanguinalis; conditions: for Crabgrass, Large plant response rating: scale 0 (no effect) to 100 (complete control)
Summary of the method: as §2

giant foxtail = test: Test B pre-/postemergence herbicide test; type: in vivo, Setaria faberi; conditions: for Foxtail, Giant plant response rating: scale 0 (no effect) to 100 (complete control)
Summary of the method: as §2

lambsquarters = test: Test B pre-/postemergence herbicide test; type: in vivo, Chenopodium album; conditions: for Lambsquarters plant response rating: scale 0 (no effect) to 100 (complete control)
Summary of the method: as §2

morningglory = test: Test B pre-/postemergence herbicide test; type: in vivo, Ipomoea coccinea; conditions: for Morningglory plant response rating: scale 0 (no effect) to 100 (complete control)
Summary of the method: as §1

pigweed = test: Test B pre-/postemergence herbicide test; type: in vivo, Amaranthus retroflexus; conditions: for Pigweed plant response rating: scale 0 (no effect) to 100 (complete control)
Summary of the method: as §2

blackgrass = test: Test B postemergence herbicide test; type: in vivo, Alopecurus myosuroides; conditions: scale 0 (no effect) to 100 (complete control)
Summary of the method: (§3)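 Paddy species grown to the 2-leaf stage under flooding; blackgrass sprayed postemergence at 2–18 cm (1- to 4-leaf stage). Plants kept in a greenhouse for 13 to 15 days, then visually rated against controls on 0 (no effect) to 100 (complete control).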

wheat = test: Test B postemergence herbicide test; type: in vivo, Triticum aestivum; set-up: key to Wheat plant response rating: 0 = no effect, 100 = complete control
Summary of the method: (§4)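 Postemergence plants were sprayed with formulated test chemicals at 2 to 18 cm height (1- to 4-leaf stage); paddy species were grown to the 2-leaf stage. After 13 to 15 days in a greenhouse, injury was rated visually against untreated controls on a 0–100 scale (0 = no effect, 100 = complete control).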

wild oat = test: Test B postemergence herbicide test; type: in vivo, Avena fatua; conditions: scale 0 (no effect) to 100 (complete control)
Summary of the method: as §4

rice = test: Test B flooded paddy test; type: in vivo, Oryza sativa; conditions: 1000 g ai/ha, scale 0 to 100 (0 no effect, 100 complete control)
Summary of the method: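 Each value is a visual 0–100 response rating taken against controls 13 to 15 days after treatment in the greenhouse. Plants received formulated chemical postemergence at the 1- to 4-leaf stage or, in flooded paddy, at the 2-leaf stage.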

[2] = tested on: small flower umbrella sedge; test: Test B flooded paddy test; type: in vivo, Cyperus difformis; conditions: 1000 g ai/ha, scale 0 to 100 (0 no effect, 100 complete control)
Summary of the method: as §3

ducksalad = test: Test B flooded paddy test; type: in vivo, Heteranthera limosa; conditions: 1000 g ai/ha, scale 0 to 100 (0 no effect, 100 complete control)
Summary of the method: as §3

barnyardgrass [3] = test: Test B flooded paddy test; type: in vivo, Echinochloa crus-galli; conditions: 1000 g ai/ha, scale 0 to 100 (0 no effect, 100 complete control)
Summary of the method: as §3

[4] = 125 g ai/ha, 0 is no effect, 100 is complete control, preemergence
[5] = 125 g ai/ha, visual rating, postemergence

SMILES: Cc1nn(C(C)(C)C)nc1C(=O)Nc1cccc(C(=O)N2CC=CC2)c1 [Compound 393]
- Plant response rating (0 to 100 scale), Barnyardgrass (barnyardgrass [1]; [4]): 90
- Barnyardgrass plant response rating (barnyardgrass [1]; [5]): 10
- Barnyardgrass plant response rating (barnyardgrass [1]; Postemergence, 500 g ai/ha): 20
- Plant response rating (0 to 100 scale), Surinam Grass (Surinam grass; [4]): 80
- Surinam Grass plant response rating (Surinam grass; [5]): 10
- Surinam Grass plant response rating (Surinam grass; Postemergence, 500 g ai/ha): 10
- Plant response rating (0 to 100 scale), Cocklebur (cocklebur; [4]): 30
- Cocklebur plant response rating (cocklebur; [5]): 30
- Cocklebur plant response rating (cocklebur; Postemergence, 500 g ai/ha): 60
- Plant response rating (0 to 100 scale), Corn (corn; [4]): 40
- Corn plant response rating (corn; [5]): 0
- Corn plant response rating (corn; Postemergence, 500 g ai/ha): 20
- Plant response rating (0 to 100 scale), Crabgrass, Large (large crabgrass; [4]): 90
- Crabgrass, Large plant response rating (large crabgrass; [5]): 10
- Crabgrass, Large plant response rating (large crabgrass; Postemergence, 500 g ai/ha): 20
- Plant response rating (0 to 100 scale), Foxtail, Giant (giant foxtail; [4]): 80
- Foxtail, Giant plant response rating (giant foxtail; [5]): 20
- Foxtail, Giant plant response rating (giant foxtail; Postemergence, 500 g ai/ha): 30
- Plant response rating (0 to 100 scale), Lambsquarters (lambsquarters; [4]): 90
- Lambsquarters plant response rating (lambsquarters; [5]): 60
- Lambsquarters plant response rating (lambsquarters; Postemergence, 500 g ai/ha): 80
- Plant response rating (0 to 100 scale), Morningglory (morningglory; [4]): 20
- Morningglory plant response rating (morningglory; [5]): 30
- Morningglory plant response rating (morningglory; Postemergence, 500 g ai/ha): 50
- Plant response rating (0 to 100 scale), Pigweed (pigweed; [4]): 100
- Pigweed plant response rating (pigweed; [5]): 40
- Pigweed plant response rating (pigweed; Postemergence, 500 g ai/ha): 50
- Blackgrass plant response rating (blackgrass; [5]): 20
- Blackgrass plant response rating (blackgrass; Postemergence, 500 g ai/ha): 40
- Wheat plant response rating (wheat; 125 g ai/ha, visual rating, scale 0 (no effect) to 100 (complete control), postemergence): 0
- Wheat plant response rating (wheat; 500 g ai/ha, scale 0 to 100, 0 no effect, 100 complete control, preemergence): 100
- Wheat plant response rating (wheat; Postemergence, 500 g ai/ha, scale 0 (no effect) to 100 (complete control)): 10
- Oat, Wild plant response rating (wild oat; [5]): 10
- Oat, Wild plant response rating (wild oat; Postemergence, 500 g ai/ha): 30
- Rice plant response rating (rice): 80
- Sedge, Umbrella plant response rating [2]: 90
- Ducksalad plant response rating (ducksalad): 90
- Barnyardgrass plant response rating (barnyardgrass [3]): 90
